Laboratory results taken from ChEMBL document CHEMBL1201862, “PubChem BioAssay data set” (2004).
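Tested at 5 concentrations; 48 h exposure; 96-well plates; endpoints linearly interpolated, else capped at highest concentration. GI50 is the concentration that inhibits growth by half.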 Active and inactive are the calls of the source. Rule as the data show it: active = GI50 up to about 1.1 µM and inactive = higher.

How the values were obtained:
Test in all cases: NCI anticancer screen, dose series, 48 h
[1] = tested on: 786-0
[2] = tested on: A498
[3] = tested on: A549
[4] = tested on: ACHN
[5] = tested on: BT-549
[6] = tested on: CAKI-1
[7] = tested on: CCRF-CEM
[8] = tested on: COLO 205
[9] = tested on: DU-145
[10] = tested on: EKVX
[11] = tested on: HCC 2998
[12] = tested on: HCT-116
[13] = tested on: HCT-15
[14] = tested on: HL-60
[15] = tested on: HOP-92
[16] = tested on: HT-29
[17] = tested on: Hs-578T
[18] = tested on: IGROV-1
[19] = tested on: K562
[20] = tested on: KM12
[21] = tested on: LOX IMVI
[22] = tested on: M14
[23] = tested on: MCF7
[24] = tested on: MDA-MB-231
[25] = tested on: MDA-MB-435
[26] = tested on: MDA-N
[27] = tested on: MOLT-4
[28] = tested on: Malme-3M
[29] = tested on: NCI-H226
[30] = tested on: NCI-H23
[31] = tested on: NCI-H460
[32] = tested on: NCI-H522
[33] = tested on: NCI/ADR-RES
[34] = tested on: OVCAR-3
[35] = tested on: OVCAR-4
[36] = tested on: OVCAR-5
[37] = tested on: OVCAR-8
[38] = tested on: PC-3
[39] = tested on: RPMI-8226
[40] = tested on: RXF 393
[41] = tested on: SF-268
[42] = tested on: SF-295
[43] = tested on: SF-539
[44] = tested on: SK-MEL-28
[45] = tested on: SK-MEL-2
[46] = tested on: SK-MEL-5
[47] = tested on: SK-OV-3
[48] = tested on: SN12C
[49] = tested on: SNB-19
[50] = tested on: SNB-75
[51] = tested on: SR
[52] = tested on: SW-620
[53] = tested on: T47D
[54] = tested on: U-251
[55] = tested on: UACC-257
[56] = tested on: UACC-62
[57] = tested on: UO-31
[58] = tested on: HOP-62
[59] = tested on: TK-10

For `CCOc1ccc2nc(NC(=O)/C(CC(=O)CC(C3=C(O)c4ccccc4CC3=O)c3ccccc3)=N\O)sc2c1` (centres undefined), the GI50 [1] was > 100 µM (inactive), the GI50 [2] was > 100 µM (inactive) and the GI50 [3] was > 100 µM (inactive). For the same compound, the GI50 [4] was > 100 µM (inactive), the GI50 [5] was > 100 µM (inactive) and the GI50 [6] was > 100 µM (inactive). The GI50 [7] was > 100 µM (inactive), the GI50 [8] was > 100 µM (inactive) and the GI50 [9] was > 100 µM (inactive). The GI50 [10] was > 100 µM (inactive), the GI50 [11] was > 100 µM (inactive) and the GI50 [12] was > 100 µM (inactive). For the same compound, the GI50 [13] was > 100 µM, the GI50 [14] was > 100 µM (inactive) and the GI50 [15] was > 100 µM (inactive). For the same compound, the GI50 [16] was > 100 µM (inactive), the GI50 [17] was > 100 µM (inactive) and the GI50 [18] was > 100 µM (inactive). The GI50 [19] was > 100 µM (inactive), the GI50 [20] was > 100 µM (inactive) and the GI50 [21] was > 100 µM (inactive). The GI50 [22] was > 100 µM (inactive), the GI50 [23] was > 100 µM (inactive) and the GI50 [24] was > 100 µM (inactive). For the same compound, the GI50 [25] was > 100 µM (inactive), the GI50 [26] was > 100 µM (inactive) and the GI50 [27] was > 100 µM (inactive). For the same compound, the GI50 [28] was > 100 µM (inactive), the GI50 [29] was > 100 µM (inactive) and the GI50 [30] was > 100 µM (inactive). The GI50 [31] was > 100 µM (inactive), the GI50 [32] was > 100 µM (inactive) and the GI50 [33] was > 100 µM (inactive). The GI50 [34] was > 100 µM (inactive), the GI50 [35] was > 100 µM (inactive) and the GI50 [36] was > 100 µM (inactive). For the same compound, the GI50 [37] was > 100 µM (inactive), the GI50 [38] was > 100 µM (inactive) and the GI50 [39] was > 100 µM (inactive). For the same compound, the GI50 [40] was > 100 µM (inactive), the GI50 [41] was > 100 µM (inactive) and the GI50 [42] was > 100 µM (inactive). For the same compound, the GI50 [43] was > 100 µM (inactive), the GI50 [44] was > 100 µM (inactive) and the GI50 [45] was > 100 µM (inactive). The GI50 [46] was > 100 µM (inactive), the GI50 [47] was > 100 µM (inactive) and the GI50 [48] was > 100 µM (inactive). For the same compound, the GI50 [49] was > 100 µM (inactive), the GI50 [50] was 52.1 µM (inactive) and the GI50 [51] was > 100 µM (inactive). The GI50 [52] was > 100 µM (inactive), the GI50 [53] was > 100 µM (inactive) and the GI50 [54] was > 100 µM (inactive). The GI50 [55] was > 100 µM (inactive), the GI50 [56] was > 100 µM (inactive) and the GI50 [57] was > 100 µM (inactive).
For `CC(=O)C1=C(c2ccccc2)N(C2OC(CO)C(O)C(O)C2O)C(S)=C(C#N)C1c1ccc(Cl)cc1` (centres undefined), the GI50 [1] was 27 µM (inactive), the GI50 [2] was 38.6 µM (inactive) and the GI50 [3] was 39.4 µM (inactive). The GI50 [4] was 29.7 µM (inactive), the GI50 [5] was 15.9 µM (inactive) and the GI50 [6] was 29 µM (inactive). The GI50 [7] was 34.8 µM (inactive), the GI50 [8] was 24.7 µM (inactive) and the GI50 [9] was 44.8 µM (inactive). For the same compound, the GI50 [11] was 17.7 µM (inactive), the GI50 [12] was 16 µM (inactive) and the GI50 [13] was 23 µM. For the same compound, the GI50 [14] was 42.4 µM (inactive), the GI50 [58] was 30.2 µM (inactive) and the GI50 [15] was 19.7 µM (inactive). The GI50 [16] was 31 µM (inactive), the GI50 [17] was 25.8 µM (inactive) and the GI50 [18] was 39.7 µM (inactive). For the same compound, the GI50 [19] was 32.7 µM (inactive), the GI50 [20] was 23.2 µM (inactive) and the GI50 [21] was 18.5 µM (inactive). The GI50 [22] was 21 µM (inactive), the GI50 [23] was 20.1 µM (inactive) and the GI50 [24] was 28.1 µM (inactive). For the same compound, the GI50 [25] was 23.6 µM (inactive), the GI50 [26] was 25.8 µM (inactive) and the GI50 [27] was 15.8 µM (inactive). For the same compound, the GI50 [28] was 24.8 µM (inactive), the GI50 [29] was 20.7 µM (inactive) and the GI50 [30] was 36 µM (inactive). For the same compound, the GI50 [31] was 21.9 µM (inactive), the GI50 [32] was 23.7 µM (inactive) and the GI50 [33] was 31.4 µM (inactive). For the same compound, the GI50 [34] was 21.6 µM (inactive), the GI50 [35] was 29.6 µM (inactive) and the GI50 [36] was 62.2 µM (inactive). For the same compound, the GI50 [37] was 33.5 µM (inactive), the GI50 [38] was 22.1 µM (inactive) and the GI50 [39] was 29.9 µM (inactive). The GI50 [40] was 28.6 µM (inactive), the GI50 [41] was 24.8 µM (inactive) and the GI50 [42] was 35.9 µM (inactive). The GI50 [43] was 18.2 µM (inactive), the GI50 [44] was 20.7 µM (inactive) and the GI50 [45] was 12.9 µM (inactive). The GI50 [46] was 19.6 µM (inactive), the GI50 [48] was 38.5 µM (inactive) and the GI50 [49] was 34.9 µM (inactive). The GI50 [50] was 28.8 µM (inactive), the GI50 [51] was 29.1 µM (inactive) and the GI50 [52] was 8.53 µM (inactive). The GI50 [53] was 10.3 µM (inactive), the GI50 [59] was 52.7 µM (inactive) and the GI50 [54] was 17.9 µM (inactive). The GI50 [55] was 25.4 µM (inactive), the GI50 [56] was 16.4 µM (inactive) and the GI50 [57] was 28.8 µM (inactive).
